Legend:
[1] = tested on: Synechocystis sp. PCC 6803; experiment: Tolerance to free fatty acids in media with increased calcium and magnesium; type: cell-based; conditions: for effect on free fatty acid tolerance: added to 2X and 4X of standard BG-11
Protocol: (§1) The Synechocystis sp. PCC 6803 strain and the SGI-004 Synechococcus strain were both tested to see if calcium and/or magnesium could alleviate the toxic effects of free fatty acid in the media. BG-11 media was used to culture the cells in multiwall plates. Calcium (CaCl2) and magnesium (MgCl2) were added alone and in combination to achieve a concentration two-fold (2×) and four-fold (4×) that of standard BG-11 media. […] PCC 6803. (Table 3). […] At a concentration double that of the BG-11 recipe (approximately 0.5 mM), calcium added a tolerance of up to about 100 mg/L more of free fatty acid for both of the strains.

[2] = tested on: SGI-004 Synechococcus strain; experiment: as above; type: cell-based; conditions: for effect on free fatty acid tolerance / viability: added to 2X and 4X of standard BG-11
Protocol: as §1

[3] = tested on: PH-SGI-E-0166; experiment: Long-term effect of calcium addition on fatty acid-producing strain, three copies Cc1FatB1; type: cell-based, Synechocystis sp. PCC 6803; conditions: ~10× calcium concentration; culture without extra calcium completely bleached after ~12 days of IPTG induction
Text: (§2) FIG. 2 provides data on the growth of genetically modified cyanobacterial strains producing free fatty acids in calcium-supplemented media. FIG. 2a is a graph showing the post-IPTG induction growth of cultures (as measure by OD at 730 nm) of Synechocystis PCC 6803 transformed with one (PH-SGI-E-0159-1; “159”) or three (PH-SGI-E-0166-1; “166”) copies of the Cc1FatB1 Cuphea carthagenensis acyl-ACP thioesterase (diamonds, strain 159 in standard BG-11 media; squares, strain 159 in standard BG-11 media supplemented to 10-fold the amount of calcium of BG-11 (˜2.5 mM); triangles, cyanobacterial strain 166 in standard BG-11 media; circles, strain 166 in standard BG-11 media supplemented to 10-fold the amount of calcium of BG-11 (˜2.5 mM)). FIG. 2b is a graph showing the post-IPTG induction free fatty acid production in mg/L of cultures of Synechocystis strains transformed with one (PH-SGI-E-0159-1; “159”) or three (PH-SGI-E-0166-1; “166”) copies of the Cc1FatB1 Cuphea carthagenensis acyl-ACP thioesterase (diamonds, strain 159 in standard BG-11 media; squares, strain 159 in standard BG-11 media supplemented to 10-fold the amount of calcium of BG-11 (˜2.5 mM); triangles, cyanobacterial strain 166 in standard BG-11 media; circles, strain 166 in standard BG-11 media supplemented to 10-fold the amount of calcium of BG-11 (˜2.5 mM)). […]

[4] = tested on: PH-SGI-E-0159; experiment: Long-term effect of calcium addition on fatty acid-producing strain, one copy Cc1FatB1; type: cell-based, Synechocystis sp. PCC 6803; conditions: with or without extra calcium addition
Text: as §2

[5] = tested on: Synechocystis sp. PCC 6803; experiment: Growth in calcium-enhanced media up to about one hundred times BG-11 calcium; type: cell-based; conditions: calcium up to about one hundred times standard BG-11 (up to ~25 mM)
Protocol: For large-scale production of fatty acids, calcium (and/or magnesium) supplementation would allow for fatty acids to accumulate during a production phase to be harvested one or more times in a non-continuous mode. Calcium concentrations up to about one hundred times the concentration of calcium in standard BG-11 medium (that is, up to ˜25 mM) have been tested on Synechocystis sp.

[6] = calcium at double the BG-11 recipe (approximately 0.5 mM)

| Structure (SMILES) | effect on free fatty acid tolerance [1] | effect on free fatty acid tolerance / viability [2] | culture survival [3] | added tolerance, more free fatty acid tolerated [1, 6] | added tolerance, more free fatty acid tolerated [2, 6] | time cultures continued to grow and stayed green [4] | growth defects in calcium-enhanced media [5] |
| --- | --- | --- | --- | --- | --- | --- | --- |
| [Cl-].[Cl-].[Mg+2] [magnesium, MgCl2] | increased free fatty tolerance | no discernible protective effect | – | – | – | – | – |
| [Ca+2].[Cl-].[Cl-] [calcium, calcium chloride] | increased free fatty tolerance | increased free fatty acid tolerance | survived | up to 100 mg/L | up to 100 mg/L | at least 31 days | no growth defects |
